Laboratory results from patent US20220279787A1, “a-Substituted Phenyl Structure-Containing Compound, Preparation Method Thereof, and Disinfectant” (Henan Ruibo Pharmaceutical Technology Co. Ltd., priority 2019, published 2022).

Columns and labels:
Format in all cases: cell-based
[1] = test system: Pseudomonas aeruginosa ATCC 27853; experiment: Suspension quantitative sterilization experiment, Pseudomonas aeruginosa ATCC 27853; conditions: suspension method, 6.25 g/L, action time 30 min
Description: (§1) (5) Operation Method of Suspension Quantitative Experiment:
(§2) a. The freeze-dried strain tube was provided, opened up under an aseptic condition, and an appropriate amount of nutrient broth was added thereto with a capillary pipette. The strain was melted and dispersed by gently blowing and sucking several times. A test tube containing 5.0 mL-10.0 mL of nutrient broth medium was provided, and a small amount of bacterial suspension was dropped thereto, and incubated at 37° C. for 18 h-24 h. The bacterial suspension of the first generation culture was taken by using an inoculation loop, and streaked and inoculated onto a nutrient agar medium plate, and incubated at 37° C. for 18 h-24 h. The typical colonies from the second generation culture was picked out, inoculated onto a nutrient agar slant, and incubated at 37° C. for 18 h-24 h, obtaining the third generation culture.
(§3) b. The monoclonal strains of the third generation culture of Escherichia coli ATCC 25922, Staphylococcus aureus ATCC 29213, and Pseudomonas aeruginosa ATCC 27853 were picked out respectively and placed in 3 mL of NMB. The strains were shaken in a constant temperature culture shaker for 3 h with a rotation speed of 220 rpm, obtaining a bacterial suspension with a concentration of (1-5)×10^8 CFU/mL.
(§4) c. 0.5 mL of bacterial suspension was added to a sterile test tube, and 0.5 mL of an organic interfering substance (0.03 mol/L PBS buffer) was then added thereto. They were mixed to be uniform, and placed in a water bath at 20° C.±1° C. for 5 min. 4.0 mL of the sample to be tested prepared in step (1) was drawn with a sterile pipette and injected into the mixed solution, mixed quickly, and the time was recorded immediately.
(§5) d. After the experimental bacteria interacted with the sample to be tested for the predetermined time of 1 min, 5 min, 15 min and 30 min. 0.5 mL of the mixture of the experimental bacteria and the sample to be tested was drawn respectively and added to 4.5 mL of a neutralizer, and mixed to be uniform.
(§6) e. After 10 min of neutralization, 1.0 mL of the sample solution was drawn, and the number of viable bacteria was determined by viable count method. After the viable count method, sample solution of each pipette was inoculated onto 2 plates. When the number of colonies growing on the plate was large, 10-fold dilution was performed, and then the viable bacteria was cultured and counted.
(§7) f. At the same time, PBS buffer was used to replace the sample to be tested, and a parallel test was performed as a positive control.
(§8) g. All test samples were placed in a 37° C. incubator overnight, and the results were observed.
(§9) h. The experiment was repeated for 3 times, the concentration of viable bacteria (CFU/mL) of each group was calculated, and converted to logarithmic value (N), and then the killing logarithmic value was calculated according to the following equation:
(§10) Killing logarithmic value (KL)=the logarithmic value of the average viable bacteria concentration of the control group (No)−the logarithmic value of the viable bacteria concentration of the test group (Nx).
(§11) When calculating the killing logarithmic value, two digits after the decimal point was kept, and digital round-off was allowed.

[2] = test system: Bacillus subtilis var. niger spores ATCC 9372; experiment: Suspension quantitative experiment, Bacillus subtilis var. niger spores; conditions: for log reduction at 15000 µg/mL: Bacillus subtilis, ATCC9372, 0.5 h, read-out: Activity (killing logarithmic value); for Killing logarithmic value: suspension method
Description: (4) Operation Method of Suspension Quantitative Experiment:
a. The Bacillus subtilis var. niger spores ATCC 9372 freeze-dried strain tube was provided, opened up under an aseptic condition, and an appropriate amount of nutrient broth was added thereto with a capillary pipette. The strain was melted and dispersed by gently blowing and sucking several times. A test tube containing 5.0 mL-10.0 mL of nutrient broth medium was provided, and a small amount of bacterial suspension was dropped thereto, and incubated at 37° C. for 18 h-24 h. The bacterial suspension of the first generation culture was taken by using an inoculation loop.
b. The monoclonal strains of the first generation culture were picked out and placed in 3 mL of NMB. The strains were shaken in a constant temperature culture shaker for 3 h with a rotation speed of 220 rpm, obtaining a bacterial suspension with a concentration of (1-5)×10^8 CFU/mL.
as §4
d. After the experimental bacteria interacted with the sample to be tested for the predetermined time. 0.5 mL of the mixture of the experimental bacteria and a disinfectant was drawn respectively and added to 4.5 mL of a neutralizer, and mixed to be uniform.
as §6
h. At the same time, PBS buffer was used to replace the sample to be tested, and a parallel test was performed as a positive control.
f. All test samples were placed in a 37° C. incubator overnight, and the results were observed.
g. The experiment was repeated for 3 times, the concentration of viable bacteria (CFU/mL) of each group was calculated, and converted to logarithmic value (N), and then the killing logarithmic value was calculated according to the following equation:
as §10, §11

[3] = test system: Staphylococcus aureus ATCC 29213; experiment: Suspension quantitative sterilization experiment, Staphylococcus aureus ATCC 29213; conditions: suspension method, 6.25 g/L, action time 30 min
Description: as §1, §2, §3, §4, §5, §6, §7, §8, §9, §10, §11

[4] = test system: Escherichia coli ATCC 25922; experiment: Suspension quantitative sterilization experiment, Escherichia coli ATCC 25922; conditions: suspension method, 6.25 g/L, action time 30 min
Description: as §1, §2, §3, §4, §5, §6, §7, §8, §9, §10, §11

[5] = test system: Staphylococcus aureus ATCC 29213; experiment: Neutralizer identification experiment, Staphylococcus aureus
Description: (§12) (4) Experimental Method for Selecting a Neutralizer:
(§13) Escherichia coli ATCC 25922 and Staphylococcus aureus ATCC 29213 were used as the experimental strains, and the concentration of the drug to be tested was set to be 2.5 g/L. The experiment was carried out according to the suspension quantitative sterilization procedure, with three repetitions, and six parallel groups:
(§14) Group I: 100 μL of a bacterial suspension (Escherichia coli ATCC 25922 with a concentration of 1×10^8 CFU/mL and Staphylococcus aureus ATCC 29213 with a concentration of 1×10^8 CFU/mL) interacted with 400 μL of the drug to be tested for 5 min; 50 μL of the mixed solution and 450 μL of PBS buffer were mixed to be uniform and diluted; the viable bacteria therein was counted;
(§15) Group II: 100 μL a bacterial suspension (Escherichia coli ATCC 25922 with a concentration of 1×10^8 CFU/mL and Staphylococcus aureus ATCC 29213 with a concentration of 1×10^8 CFU/mL) interacted with 400 μL of the drug to be tested for 5 min; 50 μL of the mixed solution and 450 μL of a neutralizer were mixed to be uniform and reacted for 10 min, and diluted; the viable bacteria therein was counted;
(§16) Group III: 10 μL of a bacterial suspension, 40 μL of sterile water, and 450 μL of a neutralizer were reacted for 10 min; the reaction solution was diluted, and the viable bacteria therein was counted;
(§17) Group V: 100 μL of bacterial suspension and 400 μL of a neutralizer were reacted for 5 min; 50 μL of the mixture and 450 μL of PBS buffer were mixed to be uniform, and then diluted; the viable bacteria therein was counted;
(§18) Group VI: a mixture of culture medium and PBS buffer was used as negative control.
(§19) Determination of the Results:
(§20) Group I had no bacteria growth or a small amount of bacteria growth;
(§21) Group II had bacteria growth, and the number of bacteria was not less than 100 CFU/mL;
(§22) the error rate of the number of bacteria between the Group III, Group IV, and Group V was less than or equal to 15%;
(§23) Group VI had no bacteria growth.

[6] = test system: Escherichia coli ATCC 25922; experiment: Neutralizer identification experiment, Escherichia coli
Description: as §12, §13, §14, §15, §16, §17, §18, §19, §20, §21, §22, §23

[7] = test system: Bacillus subtilis var. niger spores ATCC 9372; experiment: Carrier immersion quantitative sterilization test; conditions: carrier method
Description: (5) Operation Method of the Carrier Immersion Quantitative Sterilization Test:
a. A sterile small plate was provided, and marked with the concentration of the sample to be tested injected. The sample to be tested of the corresponding concentration was drawn and injected into the plate in an amount of 5.0 mL per piece.
b. 3 pieces of Bacillus subtilis var. niger spores were placed on the plate by using a sterile tweezer, and soaked in the sample to be tested.
c. After the bacteria and drugs interacted for each predetermined time, the bacteria pieces were taken out by using a sterile tweezer and transferred into a test tube containing 5.0 mL of a neutralizer. The test tube was vibrated 80 times in the palm of the hand to wash the bacteria on the bacteria piece into the neutralization solution, left to stand for another 10 min to fully neutralize. Finally after further mixing, 1.0 mL of the mixture was drawn and directly inoculated onto the plate, 2 plates for each pipette, and the number of viable bacteria was determined.
d. Another plate was provided, and 10.0 mL of PBS buffer was injected instead of the sample to be tested. 2 pieces of bacteria were added thereto as the positive control group, and the subsequent test steps and viable bacteria culture and counting were the same as the above test groups.
e. All test samples were cultured overnight in a 37° C. incubator, and the results were observed.
f. The experiment was repeated for 3 times (including the control group), and the number of viable bacteria (CFU/piece) in each group was calculated and converted to a logarithmic value (N).

[8] = 2.5 g/L drug reacted with neutralizer 10 min, then bacterial suspension added
[9] = 2.5 g/L drug, 5 min, then mixed with PBS buffer
[10] = 2.5 g/L drug, 5 min, then neutralizer 10 min

CNC(=O)C(c1ccc(O)c(O)c1)C1CCCCC1 (centres unmarked) [Example 1, 2-cyclohexyl-2-(3,4-dihydroxyphenyl)-N-methylacetamide]
Activity (killing logarithmic value) [1]: 1.31 | log reduction at 15000 µg/mL [2]: 1.35 | Activity (killing logarithmic value) [3]: 1.16 | Activity (killing logarithmic value) [4]: 1.23

CC(C)NC(=O)C(c1ccccc1)c1ccc(O)cc1 (centres unmarked) [Example 2, 2-(4-hydroxyphenyl)-N-isopropyl-2-phenylacetamide]
Activity (killing logarithmic value) [1]: 0.99 | log reduction at 15000 µg/mL [2]: 0.98 | Activity (killing logarithmic value) [3]: 0.89 | Activity (killing logarithmic value) [4]: 0.97

CNC(=O)C(c1ccccc1)c1ccc(F)c(F)c1 (centres unmarked) [Example 3, 2-(3,4-difluorophenyl)-N-methyl-2-phenylacetamide]
Activity (killing logarithmic value) [1]: 1.56 | log reduction at 15000 µg/mL [2]: 2.07 | Activity (killing logarithmic value) [3]: 1.54 | Activity (killing logarithmic value) [4]: 1.14

Cc1ccc(C(C(=O)O)c2ccc(O)cc2)cc1 (centres unmarked) [Example 4, 2-(4-hydroxyphenyl)-2-p-tolueneacetic acid]
Activity (killing logarithmic value) [1]: 0.78 | log reduction at 15000 µg/mL [2]: 1.54 | Activity (killing logarithmic value) [3]: 0.75 | Activity (killing logarithmic value) [4]: 0.78

CNC(=O)C(c1ccc(O)c(O)c1)c1ccco1 (centres unmarked) [Example 5, 2-(3,4-dihydroxyphenyl)-2-(2-furyl)-N-methylacetamide]
log reduction at 15000 µg/mL [2]: 5.6 | Viable bacteria count, Group IV [5, 8]: 7 × 10^5 CFU/mL | Viable bacteria count, Group I [5, 9]: 3 × 10^4 CFU/mL | Viable bacteria count, Group II [5, 10]: 5 × 10^4 CFU/mL | Viable bacteria count, Group IV [6, 8]: 6 × 10^6 CFU/mL | Viable bacteria count, Group I [6, 9]: 2 × 10^4 CFU/mL | Viable bacteria count, Group II [6, 10]: 400 CFU/mL

CNC(=O)C(c1ccncc1)c1ccc(O)c(O)c1 (centres unmarked) [Example 6, 2-(3,4-dihydroxyphenyl)-N-methyl-2-(4-pyridyl)acetamide]
Activity (killing logarithmic value) [1]: 0.31 | log reduction at 15000 µg/mL [2]: 0.76 | Activity (killing logarithmic value) [3]: 1.78 | Activity (killing logarithmic value) [4]: 1.64

O=C(O)C(c1ccccc1)c1ccccc1 [Example 7, 2,2-diphenylacetic acid]
Activity (killing logarithmic value) [1]: 1.29 | log reduction at 15000 µg/mL [2]: 1.97 | Activity (killing logarithmic value) [3]: 1.45 | Activity (killing logarithmic value) [4]: 1.02

O=C(O)C(c1ccc(O)c(O)c1)c1ccc(O)c(O)c1 [Example 8, 2,2-di-(3,4-dihydroxyphenyl)acetic acid]
Activity (killing logarithmic value) [1]: 0.88 | log reduction at 15000 µg/mL [2]: 2.13 | Activity (killing logarithmic value) [3]: 0.91 | Activity (killing logarithmic value) [4]: 1.73

O=Cc1ccccc1C=O [o-Phthalaldehyde solution, o-Phthalaldehyde]
Killing logarithmic value ([2]; 5 g/L, 10 min): 5.23 | Killing logarithmic value ([2]; 5 g/L, 20 min): 5.31 | Killing logarithmic value ([2]; 5 g/L, 30 min): 5.39 | Killing logarithmic value ([2]; 10 g/L, 10 min): 5.41 | Killing logarithmic value ([2]; 10 g/L, 20 min): 5.49 | Killing logarithmic value ([2]; 10 g/L, 30 min): 5.57 | Killing logarithmic value ([2]; 15 g/L, 10 min): 5.53 | Killing logarithmic value ([2]; 15 g/L, 20 min): 5.68 | Killing logarithmic value ([2]; 15 g/L, 30 min): 5.71 | Killing logarithmic value ([7]; 5 g/L, 1 h): 1.95 | Killing logarithmic value ([7]; 5 g/L, 2 h): 3.23 | Killing logarithmic value ([7]; 5 g/L, 3 h): 5.21 | Killing logarithmic value ([7]; 5 g/L, 4 h): 5.53 | Killing logarithmic value ([7]; 10 g/L, 1 h): 2.19 | Killing logarithmic value ([7]; 10 g/L, 2 h): 5.12 | Killing logarithmic value ([7]; 10 g/L, 3 h): 5.26 | Killing logarithmic value ([7]; 10 g/L, 4 h): 5.53 | Killing logarithmic value ([7]; 15 g/L, 1 h): 3.23 | Killing logarithmic value ([7]; 15 g/L, 2 h): 5.21 | Killing logarithmic value ([7]; 15 g/L, 3 h): 5.36 | Killing logarithmic value ([7]; 15 g/L, 4 h): 5.53
